Where two headings read alike, the source gives them in different places. Non-standard residues stand in square brackets, D forms with d. Residues, ends and D or L forms follow the SMILES beside them. *: point of attachment. Lauroyl = CCCCCCCCCCCC(=O)*
Experiments:
[1] = test system: S. aureus (ATCC 29213); assay: MIC determination, broth microdilution; format: cell-based, Staphylococcus aureus; conditions: S. aureus ATCC 29213, MHB-II, 37 °C, 18–24 h, triplicate
Method: (§1) The following bacteria were grown in cation-adjusted Muller-Hinton broth at 37 °C with shaking: A. baumannii (ATCC 19606), E. coli (ATCC 25922), K. pneumoniae (ATCC 13883), P. aeruginosa (ATCC 27853), and S. aureus (ATCC 29213).
(§2) The MIC experiments were performed in triplicate, as described in Jensen et al.. Briefly, all peptide stock solutions were prepared by dissolving each peptide in Milli-Q water to obtain a concentration of 10 mg/mL. A bacterial concentration of 10^6 CFU/mL was obtained through the dilution of an overnight culture (MHB-II medium). When the overnight culture was prepared, the OD was measured using a spectrophotometer and when an OD value between 0.2 and 0.4 was obtained, the culture was diluted to OD = 0.002. The MIC determination was carried out in 96-well polypropylene microtitre plates. […] A final bacterial inoculum of 5 × 10^5 CFU/mL per well was obtained by adding 50 μL bacterial suspension to the microtiter plates. The plates were incubated at 37 °C for 18–24 h. To verify the CFU, 10 μL of bacteria suspension was transferred to 990 μL 0.9 % saline solution, from which a 10-fold dilution was carried out. Then, 100 μL of the dilution was plated on an LB plate and left for bacterial growth overnight at 37 °C. Colistin and vancomycin were used as the positive controls.

[2] = test system: E. coli (ATCC 25922); format: cell-based, Escherichia coli; conditions: E. coli ATCC 25922, MHB-II, 37 °C, 18–24 h, triplicate
Method: as §1, §2

[3] = test system: K. pneumoniae (ATCC 13883); format: cell-based, Klebsiella pneumoniae; conditions: K. pneumoniae ATCC 13883, MHB-II, 37 °C, 18–24 h, triplicate
Method: as §1, §2

[4] = test system: A. baumannii (ATCC 19606); format: cell-based, Acinetobacter baumannii; conditions: A. baumannii ATCC 19606, MHB-II, 37 °C, 18–24 h, triplicate
Method: as §1, §2

[5] = test system: P. aeruginosa (ATCC 27853); format: cell-based, Pseudomonas aeruginosa; conditions: P. aeruginosa ATCC 27853, MHB-II, 37 °C, 18–24 h, triplicate
Method: as §1, §2

[6] = test system: E. coli; assay: Time-kill assay; format: cell-based, Escherichia coli; conditions: start 5 × 10^5 CFU/mL, MHB-II 37 °C, n = 3
Method: The limit of detection was set to 10 CFU/mL, corresponding to a single viable colony after the overnight incubation of 100 μL bacteria suspension on an agar plate.
An overnight culture (MHB-II media) of E. coli was diluted 1:100 in preheated MHB-II, placed in a water bath (37 °C), and allowed to grow until OD600 = 0.2–0.4 was reached. The bacterial suspension was then diluted 1:10 in 25 mL preheated MHB-II, placed in a water bath (37 °C), and then allowed to grow until an OD = 0.2 was reached. […] At time points 0, 1, 3, 5, and 24 h, 250 μL of each sample suspension were transferred to a 0.9 % saline solution in a 1-mL Eppendorf tube. The bacterial cells were washed twice in 0.9% saline, spun down (10,000× g for 5 min) and resuspended in 250 μL 0.9% saline. Then, 10-fold dilution series were prepared and aliquots of 10 μL were spotted onto LB Agar. In addition, 100 μL of undiluted bacterial suspension (except the control sample) was plated out on a separate LB plate. All of the plates were incubated (37 °C) overnight and the results were read after incubation.

[7] = Hydrophobicity by analytical RP-HPLC (%B at elution); format: physicochemical; conditions: chromatographic, analytical reversed-phase HPLC, Waters Symmetry C18 5 μm 4.6 × 250 mm; A: H2O + 0.1% TFA, B: 90:10 ACN-H2O + 0.1% TFA
Method: Peptide purity was determined as described previously by analytical RP-HPLC using a Waters 717 plus Autosampler, In-line Degasser AF, 600 Controller, and 2996 Photodiode Array Detector; the column used was a Waters Symmetry C18 column (5 μm, 4.6 mm × 250 mm, Milford, MA, USA). An aqueous acetonitrile (ACN) gradient with 0.1% TFA added (mixing eluent A: H2O + 0.1% TFA and eluent B: 90:10 ACN-H2O + 0.1% TFA) was employed using milli-Q water. Preparative RP-HPLC was performed by using a Waters XSelect Peptide CSH C18 OBDTM column (5 μm, 19 mm × 250 mm, Milford, MA, USA) with the same eluents as for analytical HPLC.
*Hydrophobicity as indicated by the percentage of mobile phase B (%B) at the peak elution time on analytical

[8] = test system: colistin-susceptible strain A. baumannii ATCC 19606; conditions: at 4 × MIC and above; cited from earlier work
[9] = test system: human erythrocytes; conditions: 150 μM peptide; 0.5% (v/v) red blood cell suspension in PBS, 1 h at 37 °C, absorbance 414 nm; melittin positive control, PBS negative control; three wells
Method: PBS served as the negative control and 5 μM melittin served as the positive control. All melittin solutions were prepared in Protein LoBind Eppendorf tubes to prevent the adsorption of melittin to the inner surface of the tubes.
Preparation of peptide solutions and melittin: A 5 μM melittin solution in PBS was prepared the day before the hemolysis experiment. First, 150 μL of this solution was transferred to each of the positive control wells and stored in the fume hood to coat the wells. On the day of the experiment, the melittin solution was discarded and the wells were washed with 3 × PBS. A 2.5 μM melittin solution in PBS was prepared and 75 μL was transferred to the wells. PBS (150 μL) was used as the negative control. A solution of each peptide was prepared by dissolving the peptide in 0.5 mL PBS to obtain a concentration of 300 μM. Each peptide solution (150 μL) was transferred to the wells in three wells each in row A, and the plate was diluted down.
Preparation of the red blood cell suspension: 1 mL of type O- whole blood in citrate was transferred to a cryotube. The whole blood was washed with 3 × PBS; adding 3, 3, and 4 mL of PBS, respectively. In between, the blood was centrifuged for 8 min (3000, 3000, and 4000 rpm, respectively) and the supernatant was removed after each centrifugation. A 0.5% (v/v) blood suspension was prepared by adding 40 μL of the washed blood cells to 8 mL of PBS. Then, 75 μL of the red blood cell suspension was transferred to each well and mixed gently. The plate was sealed and incubated for 1 h at 37 °C. After incubation, the plate was centrifuged at 4000 rpm for 10 min. Afterwards, 60 μL of the supernatant from each well was quickly transferred to an ELISA plate.
The absorbance was determined at 414 nm, and Equation (1) below was used to calculate the hemolytic activity of the peptides.

Row | Structure (SMILES) | MIC SA ([1]; inoculum 5 × 10^5 CFU/mL) [mg/L] | MIC SA ([1]; value in brackets) [µM] | MIC EC ([2]; inoculum 5 × 10^5 CFU/mL) [mg/L] | MIC EC ([2]; value in brackets) [µM] | MIC KP ([3]; inoculum 5 × 10^5 CFU/mL) [mg/L] | MIC KP ([3]; value in brackets) [µM] | MIC AB ([4]; inoculum 5 × 10^5 CFU/mL) [mg/L] | MIC AB ([4]; value in brackets) [µM] | MIC PA ([5]; inoculum 5 × 10^5 CFU/mL) [mg/L] | MIC PA ([5]; value in brackets) [µM] | viable cells after 24 h ([6]; 3 × MIC (12 μg/mL)) | viable cells after 24 h ([6]; 5 × MIC (20 μg/mL)) | %B (hydrophobicity: percentage of mobile phase B at the peak elution time) [7] [%B] | number of CFU in time-kill [8] | % hemolysis of human erythrocytes [9] [%]
1 | CCCCCCCCCC(=O)N[C@H](CCCCN)C(=O)N[C@H](CCCCN)C(=O)N[C@H](CC(C)C)C(=O)N[C@H](Cc1ccccc1)C(=O)N[C@H](CCCCN)C(=O)N[C@H](CCCCN)C(=O)N[C@@H](C(=O)N1CCCC[C@H](C(N)=O)NC(=O)[C@@H](Cc2ccc(O)cc2)NC(=O)[C@@H](CCCNC(=N)N)NC(=O)[C@@H](CC(C)C)NC(=O)C1)[C@H](C)CC [compound 13] | 8 | 4.8 | 4 | 2.4 | 16 | 9.6 | 2 | 1.2 | 8 | 4.8 | 10^3 CFU/mL | 10^2 CFU/mL | 60.9 |  | 
2 | CC[C@@H](C)[C@@H](NC(=O)[C@@H](CCCCN)NC(=O)[C@@H](CCCCN)NC(=O)[C@@H](Cc1ccccc1)NC(=O)[C@@H](CC(C)C)NC(=O)[C@@H](CCCCN)NC(=O)[C@H](N)CCCCN)C(=O)N[C@H](CC(C)C)C(=O)N[C@H](CCCNC(=N)N)C(=O)N[C@H](Cc1ccc(O)cc1)C(=O)N[C@H](CC(C)C)C(N)=O [BP214, reference compound] (H-[dK][dK][dL][dF][dK][dK][dI][dL][dR][dY][dL]-NH2; N-terminus assumed) | 8 | 5.5 | 4 | 2.8 | 2 | 1.4 | 2 | 1.4 | 4 | 2.8 |  |  | 50.8 | below the detection level | 
3 | CCCCCCCCCC(=O)N[C@H](CCCCN)C(=O)N[C@H](CCCCN)C(=O)N[C@H](CC(C)C)C(=O)N[C@H](Cc1ccccc1)C(=O)N[C@H](CCCCN)C(=O)N[C@H](CCCCN)C(=O)N1CCCC[C@H](C(N)=O)NC(=O)[C@@H](Cc2ccc(O)cc2)NC(=O)[C@@H](CCCNC(=N)N)NC(=O)[C@@H](CC(C)C)NC(=O)[C@@H]([C@H](C)CC)NC(=O)C1 [compound 16] | 4 | 2.4 | 8 | 4.8 | 16 | 9.7 | 4 | 2.4 | 8 | 4.8 |  |  | 61.3 |  | 59
4 | CCCCCCCCCCCC(=O)N[C@H](CCCCN)C(=O)N[C@H](CCCCN)C(=O)N[C@H](CC(C)C)C(=O)N[C@H](Cc1ccccc1)C(=O)N[C@H](CCCCN)C(=O)N[C@H](CCCCN)C(=O)N[C@@H](C(=O)N[C@H](CC(C)C)C(=O)N[C@H](CCCNC(=N)N)C(=O)N[C@H](Cc1ccc(O)cc1)C(=O)N[C@H](CC(C)C)C(N)=O)[C@H](C)CC [compound 5] (Lauroyl-[dK][dK][dL][dF][dK][dK][dI][dL][dR][dY][dL]-NH2) | 64 | 39.2 | 64 | 39.2 | 64 | 39.2 | 64 | 39.2 | 64 | 39.2 |  |  | 90.5 |  | 100

— publication PMC9404711 (Antibiotics, 2022)
